According to patent publication US20070072954A1, “Novel tetraoxaspiroalkanes and methods of use with organosilicon monomers in polyerizable compositions” (Curators of the University of Missouri, priority 2005, published 2007):

Experiments:
[1] = Oxirane ring-opening (oxirane conversion) via FTIR; assay type: physicochemical; details: thin film, 10 min irradiation
Protocol: In this example, the oxirane ring-opening of monomers 1 (DEBAOM-1,5,7,11-TOSU) or 6 (DEBTMSPOM-1,5,7,11-TOSU) was investigated using FTIR. All FTIR spectra were acquired using a Perkin-Elmer BX II FTIR spectrophotometer. The identification of the location of the oxirane absorption band in the IR spectrum of Siloranes was achieved by methanolysis. A sample was dissolved in CH2Cl2 and exposed to CH30H in the presence of a catalytic amount of zinc tetrafluoroborate hydrate overnight. The mixture was evaporated onto a salt plate. An FTIR spectrum was acquired and compared to pre-exposure spectrum. There was a significant decrease in the oxirane absorption region at 882-886 cm^−1. This band was selected as the absorption to monitor for following the oxirane ring-opening reaction.
Analytical samples contained siloranes I, II, or SIL-MIX with and without 50 mol % of monomer 1 (DEBAOM-1,5,7,11-TOSU) or 6 (DEBTMSPOM-1,5,7,11-TOSU). A thin film was brushed onto a salt plate. Irradiation (10 minutes at 23 to 25° C. and R. H.=40-45%) was provided by a 3M XL2500 curing light positioned 1-cm above the sample surface. The light intensity was measured at 360 mW/cm^2 on the sample surface. The oxirane band absorption and an internal reference band absorption were assessed before and after irradiation. Oxirane conversion (alpha) was calculated according to equation (1) by Pan et al., Polym Int 2000, 49, 74. [formula] where subscripts 0 and t represent pre-irradiation and post-irradiation respectively.

CCC1(COCCC[Si](C)(C)C)COC2(OC1)OCC(CC)(COCCC[Si](C)(C)C)CO2 (stereo not shown) [Monomer 6, 3,9-diethyl-3,9-bis(3-trimethylsilylpropyloxymethyl)-1,5,7,11-tetraoxaspiro[5.5]undecane]
Oxirane Conversion ([1]; comonomer 50 mol % in PH-SIL (I)): 22% | Oxirane Conversion ([1]; comonomer 50 mol % in SIL-MIX): 22% | Oxirane Conversion ([1]; comonomer 50 mol % in TET-SIL (II)): 3% | melting point: 44.27 °C
